Patent US20190282496A1 (Bryn Pharma, LLC, priority 2018, published 2019)

Assays:
[1] = dogs; concomitant intranasal administration of phentolamine; Bleske et al.; cited from earlier work
[2] = system: histamine induced nasal congestion

Structure (SMILES) | epinephrine plasma levels following intranasal administration [1] | nasal congestion and flow restriction pressure ([2]; Group 1, 5 and 10 minutes post-histamine exposure) | histamine-induced nasal congestion ([2]; aerosolized 5% histamine, all animals) | histamine induced congestion without epinephrine administration ([2]; pilot study, 60, 80 and 100 minute time points)
Cc1ccc(N(CC2=NCCN2)c2cccc(O)c2)cc1 [phentolamine] | enhanced | – | – | –
NCCc1c[nH]cn1 [Histamine] | – | progressive increase | induced congestion in all animals to varying degrees | remains elevated at significant levels
